Measured values as given in patent publication US20170135339A1, “COATING FORMULATION FOR SEED AND SURFACE STERILIZATION” (priority 2015, published 2017).

How the values were obtained:
[1] = test system: Poliovirus type 1 Chat strain
[2] = test system: Human adenovirus type 5 Adenoid 75 strain

zinc pyrithione was tested, and the “Cytopathic effect on the cells in the cell culture” value (HEp-2 cells) was “showed cytopathic effect”, the “Lowest ratio of zinc pyrithione solution which does not show cytopathic effect” value (HEp-2 cells) was 0.01% and the “Reduction in virus titration” value [1] was “at least 4 log”. The “Reduction ratio in virus titration” value [1] was 4.5 Logarithmic TCID50, the “Virus titration with disinfectant” value [1] was 1.5 Logarithmic TCID50 and the “Activity against the virus” value [2] was 99.9%. The “Reduction in virus titration” value [2] was “at least 4 log”, the “Reduction ratio in virus titration” value [2] was 4.0 Logarithmic TCID50 and the “Virus titration with disinfectant” value [2] was 1.0 Logarithmic TCID50.
